# Experimental data as given in patent US20130072527A1, “METHODS OF USING SUSTAINED RELEASE AMINOPYRIDINE COMPOSITIONS” (Acorda Therapeutics, Inc., priority 2008, published 2013).
# Where two headings read alike, the source gives them in different places.
# Assays:
# [1] = 14C-4-aminopyridine single oral dose in dogs (HWI 6379-102); type: in vivo; conditions: for AUC / Tmax / t1/2: dogs, 1 mg/kg single oral
# Source text: In both species, 14C 4-aminopyridine was rapidly absorbed.
# [2] = 14C-4-aminopyridine single oral dose in rats (HWI 6379-101); conditions: for tissue-to-blood ratio: rat, oral dose; for AUC / Tmax / t1/2: rats, 1 mg/kg single oral
# Protocol: Studies were performed in rats and dogs using ^14C-labeled 4-aminopyridine (1 mg/kg) given as a single oral gavage dose in solution.
# In a single-dose study, rats were administered ^14C-labeled 4-aminopyridine (1 mg/kg) p.o. Three animals per time point were sacrificed 1, 3, 8, and 24 hours post-dose. Blood was collected and tissues were excised for determination of radioactivity.
# [3] = Plasma protein binding of fampridine
# [4] = Single-dose pharmacokinetics in healthy volunteers; conditions: administered orally
# [5] = tested on: normal adult myelinated axons; conditions: Shi and Blight, 1997, cited from earlier work
# [6] = tested on: chronically injured spinal cord; conditions: (941 ng/mL); Shi et al., 1997; cited from earlier work
# [7] = In situ absorption study (stomach, small intestine); type: in vivo
# Source text: Absorption. 4-Aminopyridine is rapidly absorbed following oral administration.
# [8] = Raoof et al., 1997, cited from earlier work
# [9] = Rat i.v. and p.o. pharmacokinetics 2 mg/kg (M 2001-03); conditions: for Vdss: single p.o. dose 2 mg/kg; for bioavailability: rat, plasma, oral, 2 mg/kg
# [10] = Single- and repeated-dose toxicity studies; type: in vivo; conditions: orally administered; most often
# Protocol: Toxicology. In single- and repeated-dose toxicity studies, the dosing regimen greatly affected the rate of mortality and incidence of clinical signs in all species studied (with the possible exception of the mouse). In general, higher mortality rates and greater incidences of adverse clinical signs were noted when 4-aminopyridine was administered in a single large dose as compared to when the same total dose was given as two, three, or four equally divided sub-doses. Toxic responses to orally administered 4-aminopyridine were rapid in onset, most often occurring within the first 2 hours post-dose.
# These clinical signs were not unexpected and represent exaggerated pharmacology of 4-aminopyridine.
# [11] = tested on: patients with multiple sclerosis; experiment: Phase 3 study MS-F204: other measures (MSWS-12, SGI, CGI, Ashworth score); type: in vivo, human
# Source text: (§1) The period of efficacy evaluation (visits 2-6) included 8 weeks of twice daily treatment. An additional week was incorporated to allow pharmacodynamic evaluation at Visit 7, which was not part of the primary endpoint. (See FIG. 1 for study design). In particular, this study is a double-blind, placebo-controlled, parallel group, 13-week study (one week post screening, two weeks of single-blind placebo run-in, eight weeks of double-blind treatment, and two weeks of follow-up) in patients with multiple sclerosis. […] One of the goals of this study is to confirm the primary outcome measure in a second prospective study, and equal randomization is the most efficient way to test this outcome. […] In order to ensure at least 184 patients complete the study, approximately 100 patients were randomized to each group.
# Other measures. A number of other measures, not powered for statistical comparison, were included for integrated analyses across studies: MSWS-12, SGI, CGI, Ashworth score.
# Spasticity may be assessed in addition to walking speed and leg strength. When assessed, spasticity is evaluated at the screening visit and each subsequent visit using the Ashworth Spasticity Score. Preferably, the evaluation is prior to the LEMMT and includes evaluation of six lower extremity muscle groups; knee flexors, knee extensors and hip adductors on both the right and left side of the body. […]
# [12] = Oral administration of non-sustained release 4-aminopyridine in animals
# [13] = tested on: patients with multiple sclerosis; experiment: Phase 3 study MS-F204: leg strength (LEMMT); type: in vivo, human
# Source text: as §1
# Secondary Outcome. The prospectively defined secondary outcome was leg strength, measured by Lower Extremity Manual Muscle Test (LEMMT) in 8 muscle groups, comparing the treated Timed Walk Responders and Timed Walk Non-Responders with placebo-treated patients.
# […] (p-values compared to placebo). […] (Analyzed by t-tests of the least-squares means using the mean square error via an ANOVA model with effects for responder analysis group and center.)
# [14] = tested on: patients with multiple sclerosis; experiment: Phase 3 study MS-F204: Timed 25 Foot Walk (Timed Walk Response); type: in vivo, human
# [15] = one hour post-dose, 1 mg/kg p.o.
molecule,measurement,setting,value
^14C-4-Aminopyridine,AUC,[1]; females,1920 ± 150 ng·h/mL
same,Tmax,[1]; females,0.8 ± 0.3 h
same,t1/2,[1]; females,1.8 ± 0.04 h
same,AUC,[1]; males,2030 ± 406 ng·h/mL
same,Tmax,[1]; males,1.0 ± 0 h
same,t1/2,[1]; males,2.1 ± 0.14 h
same,Cmax and AUC in the dog relative to the rat,[1]; doses equal on a mg/kg basis (1 mg/kg oral),approximately four-fold higher
same,radioactive dose in the carcass,"[2]; 3 hours post-dose, 1 mg/kg p.o.",15.4%
same,tissue-to-blood ratio,[2]; cerebellum,1.48
same,tissue-to-blood ratio,[2]; cerebrum,3.07
same,dose accounted for in total (radioactivity),[2]; [15],58.3%
same,"radioactivity in blood, % of dose",[2]; [15],0.7%
same,"radioactivity in kidney, % of dose",[2]; [15],1.6%
same,"radioactivity in liver, % of dose",[2]; [15],2.6%
same,radioactivity in the carcass,[2]; [15],51%
same,AUC,[2]; females,506 ± 63.3 ng·h/mL
same,Tmax,[2]; females,0.5 h
same,t1/2,[2]; females,1.4 ± 0.17 h
same,AUC,[2]; males,498 ± 17.6 ng·h/mL
same,Tmax,[2]; males,1.0 h
same,t1/2,[2]; males,1.1 ± 0.04 h
Nc1ccncc1 [4-aminopyridine],fraction unbound,[3],0.97 to 0.99
same,absorption from the gastrointestinal tract,[4],completely absorbed
same,concentration below which the action potential shows little or no sensitivity,[5]; (9.4 μg/mL),below 100 μM
same,concentration causing gradual depolarization of the axon resting potential,[5]; (94.1 μg/mL),above 1 mM
same,most effective concentration,[6],about 10 μM
same,half-life,[7]; small intestine,0.67 h
same,half-life,[7]; stomach,1.81 h
same,"regional apparent permeability coefficient (papp×10^−6, cm/sec)",[8]; large intestine,2.9 ×10^−6 cm/sec
same,"regional apparent permeability coefficient (papp×10^−6, cm/sec)",[8]; upper small intestine,22.7 ×10^−6 cm/sec
same,Vdss,[9]; female rats,947.5 mL
same,bioavailability,[9]; female,~55%
same,Vdss,[9]; male rats,1094.4 mL
same,bioavailability,[9]; male,~66.5%
same,Vdss difference between males and females adjusted for body weight,"[9]; rats, 2 mg/kg p.o.",2%
same,Vdss lower in females than in males,"[9]; rats, 2 mg/kg p.o., not statistically significant",13%
same,peak plasma concentrations lower in females than in males,"[9]; rats, oral administration",38%
same,onset of toxic responses post-dose,[10],≤ 2 h
same,"MSWS-12 score, SGI, and CGI",[11]; among Timed Walk Responders but not Timed Walk Non-Responders,improvement
same,Ashworth Score compared to the placebo treated group,[11]; significant in an unplanned analysis,improvement
same,time of peak plasma concentrations after dosing,[12],≤ 1 h
same,leg strength (LEMMT) versus placebo treated or Timed Walk Responder groups,[13]; Fampridine-treated Timed Walk Non-Responders,not significantly different
same,leg strength (LEMMT) versus placebo-treated patients,"[13]; Timed Walk Responders, p=0.028",significantly improved
same,Timed Walk response rate,"[14]; 10 mg b.i.d., with concomitant interferons, natalizumab, or glatiramer acetate (n=70)",42.9%
same,Timed Walk response rate,"[14]; 10 mg b.i.d., without concomitant immunomodulators (n=49)",42.9%
same,improvement in walking speed from baseline,"[14]; Timed Walk Responders, throughout the treatment period",approximately 25%
same,proportion of MS patients with consistently improved walking speed (Timed Walk Response),"[14]; eight weeks of treatment, 10 mg b.i.d.",42%
same,elimination half-life,[2]; blood,1.21 h
same,elimination half-life,[2]; cerebellum,1.24 h
same,elimination half-life,[2]; cerebrum,1.63 h
